{"source": "patent US6441169B1", "about": "“Pyrimidin-2-oxy-4-one and pyrimidin-2-oxy-4-thione derivatives” (Syngenta Crop Protection, Inc., priority 1997, dated 2002)", "key": {"[1]": {"test_system": "Puccinia graminis", "assay_type": "in vivo", "details": "wheat plants; a) spray 0.02% active ingredient, infected 24 hours later; b) soil drench 0.006% a.i., infected after 48 hours; evaluation 12 days after infection"}, "[2]": {"test_system": "Colletotrichum lagenarium", "assay": "B-2 Action against Colletotrichum lagenarium on cucumbers", "assay_type": "in vivo", "details": "cucumber plants; spray concentration 0.002%; infected 2 days later; evaluation 8 days after infection", "protocol": "Action Against Colletotrichum lagenarium on Cucumbers After a growth period of 2 weeks, cucumber plants are sprayed with an aqueous spray mixture (concentration 0.002%) prepared from a wettable powder formulation of the test compound and infected 2 days later with a spore suspension (1.5×10^5 spores/ml) of the fungus and incubated for 36 hours at 23° C. and high humidity. Incubation is then continued at normal humidity and c. 22° C. Evaluation of the fungal infestation is made 8 days after infection."}, "[3]": {"test_system": "Venturia inaegualis", "assay": "B-3 Residual-protective action against Venturia inaegualis on apples", "assay_type": "in vivo", "details": "apple cuttings; spray 0.02% a.i.; infected 24 hours later; evaluation 12 days after infection", "protocol": "Residual-protective Action Against Venturia inaegualis on Apples Apple cuttings with fresh shoots 10 to 20 cm long are sprayed to drip point with a spray mixture (0.02% a.i.) prepared from a wettable powder formulation of the test compound. The plants are infected 24 hours later with a conidia suspension of the fungus. The plants are then incubated for 5 days at 90 to 100% relative humidity and stood in a greenhouse for a further 10 days at 20 to 24° C. Evaluation of the fungal infestation is made 12 days after infection."}}}
{"molecule": "CCCn1c(OCC2(C)CC2)nc2ccc(Br)cc2c1=O", "note": "[Compound 1.7, 6-bromo-2-(1-methylcyclopropylmethoxy)-3-n-propyl-3Hquinazoline-4-one]", "values": [{"measurement": "melting point", "value": "81 to 85", "unit": "°C"}, {"measurement": "activity against Puccinia graminis (fungal infestation)", "setting": "[1]", "value": "good to excellent activity"}, {"measurement": "activity against Colletotrichum lagenarium (fungal infestation)", "setting": "[2]", "value": "good to excellent activity"}, {"measurement": "activity against Venturia inaegualis (fungal infestation)", "setting": "[3]", "value": "good activity"}]}
{"molecule": "CCCCn1c(OCC2(C)CC2)nc2ccc(Br)cc2c1=O", "note": "[Compound 1.10, 6-bromo-2-(1-methylcyclopropylmethoxy)-3-n-buyl-3H-quinazoline-4-one]", "values": [{"measurement": "activity against Puccinia graminis (fungal infestation)", "setting": "[1]", "value": "good to excellent activity"}, {"measurement": "activity against Colletotrichum lagenarium (fungal infestation)", "setting": "[2]", "value": "good to excellent activity"}, {"measurement": "activity against Venturia inaegualis (fungal infestation)", "setting": "[3]", "value": "good activity"}]}
{"molecule": "CC1(COc2nc3ccc(Br)cc3c(=O)n2CC2CC2)CC1", "note": "[Compound 1.15]", "values": [{"measurement": "activity against Puccinia graminis (fungal infestation)", "setting": "[1]", "value": "good to excellent activity"}, {"measurement": "activity against Colletotrichum lagenarium (fungal infestation)", "setting": "[2]", "value": "good to excellent activity"}, {"measurement": "activity against Venturia inaegualis (fungal infestation)", "setting": "[3]", "value": "good activity"}]}
{"molecule": "CCCn1c(OCC2CC2C)nc2ccc(Br)cc2c1=O", "note": "(centres unmarked) [Compound 1.22, 6-bromo-2-(2-methylcyclopropylmethoxy)-3-n-propyl-3H-quinazoline-4-one]", "values": [{"measurement": "melting point", "value": "49 to 51", "unit": "°C"}, {"measurement": "activity against Puccinia graminis (fungal infestation)", "setting": "[1]", "value": "good to excellent activity"}, {"measurement": "activity against Colletotrichum lagenarium (fungal infestation)", "setting": "[2]", "value": "good to excellent activity"}, {"measurement": "activity against Venturia inaegualis (fungal infestation)", "setting": "[3]", "value": "good activity"}]}
{"molecule": "CCCCn1c(OCC2CC2C)nc2ccc(Br)cc2c1=O", "note": "(centres unmarked) [Compound 1.25, 6-bromo-2-(2-methylcyclopropylmethoxy)-3-n-buyl-3H-quinazoline-4-one]", "values": [{"measurement": "activity against Puccinia graminis (fungal infestation)", "setting": "[1]", "value": "good to excellent activity"}, {"measurement": "activity against Colletotrichum lagenarium (fungal infestation)", "setting": "[2]", "value": "good to excellent activity"}, {"measurement": "activity against Venturia inaegualis (fungal infestation)", "setting": "[3]", "value": "good activity"}]}
{"molecule": "CC1CC1COc1nc2ccc(Br)cc2c(=O)n1CC1CC1", "note": "(centres unmarked) [Compound 1.30]", "values": [{"measurement": "activity against Puccinia graminis (fungal infestation)", "setting": "[1]", "value": "good to excellent activity"}, {"measurement": "activity against Colletotrichum lagenarium (fungal infestation)", "setting": "[2]", "value": "good to excellent activity"}, {"measurement": "activity against Venturia inaegualis (fungal infestation)", "setting": "[3]", "value": "good activity"}]}
{"molecule": "CCCn1c(OCC2CC2(Cl)Cl)nc2ccc(Br)cc2c1=O", "note": "(centres unmarked) [Compound 1.37]", "values": [{"measurement": "activity against Puccinia graminis (fungal infestation)", "setting": "[1]", "value": "good to excellent activity"}, {"measurement": "activity against Colletotrichum lagenarium (fungal infestation)", "setting": "[2]", "value": "good to excellent activity"}, {"measurement": "activity against Venturia inaegualis (fungal infestation)", "setting": "[3]", "value": "good activity"}]}
{"molecule": "CCCn1c(OCC2(C)CC2)nc2sc(Cl)cc2c1=O", "note": "[Compound 3.6, 6-chloro-2-(1-methylcyclopropylmethoxy)-3-n-propyl-3H-thieno[2.3-d]pyrimidin-4-one]", "values": [{"measurement": "activity against Puccinia graminis (fungal infestation)", "setting": "[1]", "value": "good to excellent activity"}, {"measurement": "activity against Colletotrichum lagenarium (fungal infestation)", "setting": "[2]", "value": "good to excellent activity"}, {"measurement": "activity against Venturia inaegualis (fungal infestation)", "setting": "[3]", "value": "good activity"}]}
{"molecule": "CCCn1c(OCC2(C)CC2)nc2sc(Br)cc2c1=O", "note": "[Compound 3.7, 6-bromo-2-(1-methylcyclopropylmethoxy)-3-n-propyl-3H-thieno[2.3-d]pyrimidin-4-one]", "values": [{"measurement": "activity against Puccinia graminis (fungal infestation)", "setting": "[1]", "value": "good to excellent activity"}, {"measurement": "activity against Colletotrichum lagenarium (fungal infestation)", "setting": "[2]", "value": "good to excellent activity"}, {"measurement": "activity against Venturia inaegualis (fungal infestation)", "setting": "[3]", "value": "good activity"}]}
{"molecule": "CCCn1c(OCC2CC2C)nc2sc(Cl)cc2c1=O", "note": "(centres unmarked) [Compound 3.21, 6-chloro-2-(2-methylcyclopropylmethoxy)-3-n-propyl-3H-thieno[2.3-d]pyrimidin-4-one]", "values": [{"measurement": "activity against Puccinia graminis (fungal infestation)", "setting": "[1]", "value": "good to excellent activity"}, {"measurement": "activity against Colletotrichum lagenarium (fungal infestation)", "setting": "[2]", "value": "good to excellent activity"}, {"measurement": "activity against Venturia inaegualis (fungal infestation)", "setting": "[3]", "value": "good activity"}]}
{"molecule": "CCCn1c(OCC2CC2C)nc2sc(Br)cc2c1=O", "note": "(centres unmarked) [Compound 3.22, 6-bromo-2-(2-methylcyclopropylmethoxy)-3-n-propyl-3H-thieno[2.3-d]pyrimidin-4-one]", "values": [{"measurement": "activity against Puccinia graminis (fungal infestation)", "setting": "[1]", "value": "good to excellent activity"}, {"measurement": "activity against Colletotrichum lagenarium (fungal infestation)", "setting": "[2]", "value": "good to excellent activity"}, {"measurement": "activity against Venturia inaegualis (fungal infestation)", "setting": "[3]", "value": "good activity"}]}
{"molecule": "CCCn1c(OCC2CC2(Cl)Cl)nc2sc(Cl)cc2c1=O", "note": "(centres unmarked) [Compound 3.36, 6-chloro-2-(2,2-Dichlorocyclopropylmethoxy)-3-n-propyl-3H-thieno-[2.3-d]pyrimidin-4-one]", "values": [{"measurement": "activity against Puccinia graminis (fungal infestation)", "setting": "[1]", "value": "good to excellent activity"}, {"measurement": "activity against Colletotrichum lagenarium (fungal infestation)", "setting": "[2]", "value": "good to excellent activity"}, {"measurement": "activity against Venturia inaegualis (fungal infestation)", "setting": "[3]", "value": "good activity"}]}
{"molecule": "CCCn1c(OCC2CC2(F)F)nc2sc(Cl)cc2c1=O", "note": "(centres unmarked) [Compound 3.51]", "values": [{"measurement": "activity against Puccinia graminis (fungal infestation)", "setting": "[1]", "value": "good to excellent activity"}, {"measurement": "activity against Colletotrichum lagenarium (fungal infestation)", "setting": "[2]", "value": "good to excellent activity"}, {"measurement": "activity against Venturia inaegualis (fungal infestation)", "setting": "[3]", "value": "good activity"}]}
{"molecule": "CCCn1c(OCC2CC2(F)F)nc2sc(Br)cc2c1=O", "note": "(centres unmarked) [Compound 3.52]", "values": [{"measurement": "activity against Puccinia graminis (fungal infestation)", "setting": "[1]", "value": "good to excellent activity"}, {"measurement": "activity against Colletotrichum lagenarium (fungal infestation)", "setting": "[2]", "value": "good to excellent activity"}, {"measurement": "activity against Venturia inaegualis (fungal infestation)", "setting": "[3]", "value": "good activity"}]}
{"molecule": "CCCn1c(OCC2(C)CC2)nc2c(Br)csc2c1=O", "note": "[Compound 4.8]", "values": [{"measurement": "activity against Puccinia graminis (fungal infestation)", "setting": "[1]", "value": "good to excellent activity"}, {"measurement": "activity against Colletotrichum lagenarium (fungal infestation)", "setting": "[2]", "value": "good to excellent activity"}, {"measurement": "activity against Venturia inaegualis (fungal infestation)", "setting": "[3]", "value": "good activity"}]}
{"molecule": "CCCn1c(OCC2CC2C)nc2c(Br)csc2c1=O", "note": "(centres unmarked) [Compound 4.23]", "values": [{"measurement": "activity against Puccinia graminis (fungal infestation)", "setting": "[1]", "value": "good to excellent activity"}, {"measurement": "activity against Colletotrichum lagenarium (fungal infestation)", "setting": "[2]", "value": "good to excellent activity"}, {"measurement": "activity against Venturia inaegualis (fungal infestation)", "setting": "[3]", "value": "good activity"}]}
